Test results as given in PubChem BioAssay AID2060890 (Molecular Pharmacology Branch, DTP, NCI, 2025).

System: LG0703-F948-PDC complex spheroid viability
Assay: Anticancer human tumor LG0703-F948-PDC patient-derived lung adenocarcinoma cell line growth inhibition [RAS]
Details: for IC50: curve of first compound; for viability, T/C: stronger effect = lower value
Procedure, shortened: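 Agents were tested in combination matrices in half-log decrements from a top concentration at or near clinical Cmax (10 microM if undetermined). Targets were multi-cell spheroids of tumour lines plus HUVEC and MSC stromal cells.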

[1] = second compound 0.00316 µM, first compound 0.0316 µM
[2] = second compound 0.00316 µM, first compound 0.1 µM
[3] = second compound 0.00316 µM, first compound 0.316 µM
[4] = second compound 0.00316 µM, first compound 1 µM
[5] = second compound 0.00316 µM, first compound 3.16 µM
[6] = second compound 0.00316 µM, first compound 10 µM
[7] = second compound 0.01 µM, first compound 0.0316 µM
[8] = second compound 0.01 µM, first compound 0.1 µM
[9] = second compound 0.01 µM, first compound 0.316 µM
[10] = second compound 0.01 µM, first compound 1 µM
[11] = second compound 0.01 µM, first compound 3.16 µM
[12] = second compound 0.01 µM, first compound 10 µM
[13] = second compound 0.0316 µM, first compound 0.0316 µM
[14] = second compound 0.0316 µM, first compound 0.1 µM
[15] = second compound 0.0316 µM, first compound 0.316 µM
[16] = second compound 0.0316 µM, first compound 1 µM
[17] = second compound 0.0316 µM, first compound 3.16 µM
[18] = second compound 0.0316 µM, first compound 10 µM
[19] = second compound 0.1 µM, first compound 0.0316 µM
[20] = second compound 0.1 µM, first compound 0.1 µM
[21] = second compound 0.1 µM, first compound 0.316 µM
[22] = second compound 0.1 µM, first compound 1 µM
[23] = second compound 0.1 µM, first compound 3.16 µM
[24] = second compound 0.1 µM, first compound 10 µM
[25] = second compound 0.316 µM, first compound 0.0316 µM
[26] = second compound 0.316 µM, first compound 0.1 µM
[27] = second compound 0.316 µM, first compound 0.316 µM
[28] = second compound 0.316 µM, first compound 1 µM
[29] = second compound 0.316 µM, first compound 3.16 µM
[30] = second compound 0.316 µM, first compound 10 µM
[31] = second compound 1 µM, first compound 0.0316 µM
[32] = second compound 1 µM, first compound 0.1 µM
[33] = second compound 1 µM, first compound 0.316 µM
[34] = second compound 1 µM, first compound 1 µM
[35] = second compound 1 µM, first compound 3.16 µM
[36] = second compound 1 µM, first compound 10 µM
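Further: spheroids exposed to agents for 7 days.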
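Wherever viability, T/C is given: 100% = DMSO vehicle wells.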

SMILES: CC(C)NCC(C(=O)N1CCN(c2ncnc3c2C(C)CC3O)CC1)c1ccc(Cl)cc1 (centres undefined) + C=CC(=O)N1CCN(c2nc(OCC3CCCN3C)nc3c(F)c(-c4nc(N)cc(C)c4C(F)(F)F)c(Cl)cc23)C(C)C1
- IC50 (second compound 0.00316 µM): 577 nM
- IC50 (second compound 0.01 µM): 656 nM
- IC50 (second compound 0.0316 µM): 625 nM
- IC50 (second compound 0.1 µM): 650 nM
- IC50 (second compound 0.316 µM): 640 nM
- IC50 (second compound 1 µM): 696 nM
- viability, T/C [1]: 97%
- viability, T/C [2]: 77.6%
- viability, T/C [3]: 56.9%
- viability, T/C [4]: 44.7%
- viability, T/C [5]: 28.1%
- viability, T/C [6]: 21.6%
- viability, T/C [7]: 96.4%
- viability, T/C [8]: 78.8%
- viability, T/C [9]: 56.2%
- viability, T/C [10]: 46.5%
- viability, T/C [11]: 31.6%
- viability, T/C [12]: 20.8%
- viability, T/C [13]: 100%
- viability, T/C [14]: 79.9%
- viability, T/C [15]: 61.9%
- viability, T/C [16]: 40.4%
- viability, T/C [17]: 33.3%
- viability, T/C [18]: 23.3%
- viability, T/C [19]: 87.3%
- viability, T/C [20]: 74.6%
- viability, T/C [21]: 62%
- viability, T/C [22]: 42%
- viability, T/C [23]: 31.6%
- viability, T/C [24]: 21.2%
- viability, T/C [25]: 103%
- viability, T/C [26]: 82%
- viability, T/C [27]: 58.5%
- viability, T/C [28]: 44.2%
- viability, T/C [29]: 29.8%
- viability, T/C [30]: 18.5%
- viability, T/C [31]: 104%
- viability, T/C [32]: 97%
- viability, T/C [33]: 61.4%
- viability, T/C [34]: 44.9%
- viability, T/C [35]: 25.8%
- viability, T/C [36]: 15.1%

SMILES: CC(Nc1ccc2c(c1)OCCn1cc(N3C(=O)OCC3C(F)F)nc1-2)C(N)=O (centres undefined) + C=CC(=O)N1CCN(c2nc(OCC3CCCN3C)nc3c(F)c(-c4nc(N)cc(C)c4C(F)(F)F)c(Cl)cc23)C(C)C1
- IC50 (second compound 0.00316 µM): 1150 nM
- IC50 (second compound 0.01 µM): 882 nM
- IC50 (second compound 0.0316 µM): 987 nM
- IC50 (second compound 0.1 µM): 967 nM
- IC50 (second compound 0.316 µM): 962 nM
- IC50 (second compound 1 µM): 1190 nM
- viability, T/C [1]: 91.8%
- viability, T/C [2]: 84.8%
- viability, T/C [3]: 64.5%
- viability, T/C [4]: 53.5%
- viability, T/C [5]: 34.7%
- viability, T/C [6]: 14.8%
- viability, T/C [7]: 99.9%
- viability, T/C [8]: 83.3%
- viability, T/C [9]: 62.2%
- viability, T/C [10]: 49.5%
- viability, T/C [11]: 32.9%
- viability, T/C [12]: 14.2%
- viability, T/C [13]: 98.9%
- viability, T/C [14]: 86.7%
- viability, T/C [15]: 66.9%
- viability, T/C [16]: 47.4%
- viability, T/C [17]: 34.6%
- viability, T/C [18]: 13.5%
- viability, T/C [19]: 105%
- viability, T/C [20]: 86.3%
- viability, T/C [21]: 63.9%
- viability, T/C [22]: 50.9%
- viability, T/C [23]: 35.2%
- viability, T/C [24]: 12.9%
- viability, T/C [25]: 113%
- viability, T/C [26]: 86.6%
- viability, T/C [27]: 68%
- viability, T/C [28]: 44.3%
- viability, T/C [29]: 34.4%
- viability, T/C [30]: 14.8%
- viability, T/C [31]: 108%
- viability, T/C [32]: 96.5%
- viability, T/C [33]: 69.2%
- viability, T/C [34]: 53.5%
- viability, T/C [35]: 36%
- viability, T/C [36]: 11.7%
